Source: PubChem BioAssay AID248 (DTP/NCI, 2004)
Values joined by “and” are separate entries in the source; they are usually repeats but may differ in a detail not shown here. Identical values can stand only once. Inconclusive results and toxic doses are left out. Cut-off read from the data, not from the text of the source: active = T/C of 150% or more; inactive = T/C below 125%.

Tested on: L1210 leukemia ip in BDF1 mice, survival T/C
Assay: NCI In Vivo Anticancer Drug Screen. Data for tumor model L1210 Leukemia (intraperitoneal) in B6D2F1 (BDF1) mice
Conditions: endpoint: mean survival time, higher = longer survival
Method in brief: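 Mice bearing the transplanted tumor received compound or vehicle. Survival of the treated group was divided by that of the vehicle-treated control group to give the ratio.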

[1] = dose: 100.0 mg/kg/injection, schedule: Q01DX009 (ip), vehicle: Klucel (hydroxypropylcellulose) (HPC)
[2] = dose: 100.0 mg/kg/injection, schedule: Q01DX009 (ip), vehicle: saline with Tween-80
[3] = dose: 100.0 mg/kg/injection, schedule: Q04DX003 (ip), vehicle: saline with Tween-80
[4] = dose: 200.0 mg/kg/injection, schedule: Q01DX009 (ip), vehicle: Klucel (hydroxypropylcellulose) (HPC)
[5] = dose: 200.0 mg/kg/injection, schedule: Q01DX009 (ip), vehicle: saline with Tween-80
[6] = dose: 200.0 mg/kg/injection, schedule: Q04DX003 (ip), vehicle: saline with Tween-80
[7] = dose: 400.0 mg/kg/injection, schedule: Q01DX009 (ip), vehicle: Klucel (hydroxypropylcellulose) (HPC)
[8] = dose: 400.0 mg/kg/injection, schedule: Q01DX009 (ip), vehicle: saline with Tween-80
[9] = dose: 400.0 mg/kg/injection, schedule: Q04DX003 (ip), vehicle: saline with Tween-80
[10] = dose: 100.0 mg/kg/injection, schedule: Q04DX003 (ip), vehicle: Klucel (hydroxypropylcellulose) (HPC)
[11] = dose: 200.0 mg/kg/injection, schedule: Q04DX003 (ip), vehicle: Klucel (hydroxypropylcellulose) (HPC)
[12] = dose: 400.0 mg/kg/injection, schedule: Q04DX003 (ip), vehicle: Klucel (hydroxypropylcellulose) (HPC)
[13] = dose: 25.0 mg/kg/injection, schedule: Q04DX002 (ip), vehicle: Klucel (hydroxypropylcellulose) (HPC)
[14] = dose: 50.0 mg/kg/injection, schedule: Q04DX002 (ip), vehicle: Klucel (hydroxypropylcellulose) (HPC)
[15] = dose: 100.0 mg/kg/injection, schedule: Q01DX001 (ip), vehicle: saline
[16] = dose: 200.0 mg/kg/injection, schedule: Q01DX001 (ip), vehicle: saline
[17] = dose: 400.0 mg/kg/injection, schedule: Q01DX001 (ip), vehicle: saline
[18] = dose: 100.0 mg/kg/injection, schedule: Q04DX002 (ip), vehicle: saline with Tween-80
[19] = dose: 200.0 mg/kg/injection, schedule: Q04DX002 (ip), vehicle: saline with Tween-80
[20] = dose: 400.0 mg/kg/injection, schedule: Q04DX002 (ip), vehicle: saline with Tween-80

Measured: T/C

CN(C)c1ccc(-c2nc3ccccn3c2N)cc1
inactive: dose: 3.13 mg/kg/injection, schedule: Q01DX009 (ip), vehicle: saline 95 % of control | dose: 6.25 mg/kg/injection, schedule: Q01DX009 (ip), vehicle: saline 92 % of control and 101 % of control | dose: 12.5 mg/kg/injection, schedule: Q01DX009 (ip), vehicle: saline 100 % of control and 114 % of control

Oc1ccc(-c2n[nH]c3c2CCCc2ccccc2-3)cc1
inactive: dose: 12.5 mg/kg/injection, schedule: Q01DX001 (ip), vehicle: saline with Tween-80 101 % of control | dose: 12.5 mg/kg/injection, schedule: Q04DX003 (ip), vehicle: saline with Tween-80 103 % of control | dose: 25.0 mg/kg/injection, schedule: Q01DX001 (ip), vehicle: saline with Tween-80 104 % of control | dose: 25.0 mg/kg/injection, schedule: Q04DX003 (ip), vehicle: saline with Tween-80 106 % of control | dose: 50.0 mg/kg/injection, schedule: Q01DX001 (ip), vehicle: saline with Tween-80 108 % of control | dose: 50.0 mg/kg/injection, schedule: Q04DX003 (ip), vehicle: saline with Tween-80 92 % of control

O=c1cc(-c2ccccc2)ss1
inactive: [1] 100 % of control | [2] 101 % of control | [3] 102 % of control | [4] 102 % of control | [5] 97 % of control | [6] 102 % of control | [7] 105 % of control | [8] 96 % of control | [9] 103 % of control

CC(C)OC(=O)NC1C=CC=CC=C1
inactive: dose: 50.0 mg/kg/injection, schedule: Q04DX003 (ip), vehicle: Klucel (hydroxypropylcellulose) (HPC) 98 % of control | [10] 93 % of control | [11] 104 % of control | [12] 106 % of control

NC(=S)N/N=C/c1ccc(Cl)s1
inactive: [13] 95 % of control | [14] 95 % of control | dose: 100.0 mg/kg/injection, schedule: Q04DX002 (ip), vehicle: Klucel (hydroxypropylcellulose) (HPC) 98 % of control and 100 % of control

COc1ccc(OC(=O)Nc2ccccc2OC)cc1
inactive: [1] 97 % of control | [10] 98 % of control | [4] 100 % of control | [11] 96 % of control | [7] 95 % of control | [12] 95 % of control

CCCCOCN1COCC1(C)C
inactive: [3] 108 % of control | [6] 106 % of control

Cc1[nH]c(=O)[nH]c(=O)c1S(=O)(=O)O
inactive: [10] 98 % of control | [11] 93 % of control | [12] 98 % of control

O=C(COc1cccc(Cl)c1)Nc1ccc(C(=O)CCl)cc1
inactive: dose: 100.0 mg/kg/injection, schedule: Q01DX001 (ip), vehicle: gum acacia 90 % of control | dose: 200.0 mg/kg/injection, schedule: Q01DX001 (ip), vehicle: gum acacia 100 % of control | dose: 400.0 mg/kg/injection, schedule: Q01DX001 (ip), vehicle: gum acacia 99 % of control

CC(C)(C)C1CSC(c2ccccc2)SC1 (stereo unspecified)
inactive: dose: 12.5 mg/kg/injection, schedule: Q04DX002 (ip), vehicle: Klucel (hydroxypropylcellulose) (HPC) 98 % of control | [13] 92 % of control | [14] 98 % of control

Cc1ccc(C)c(N(c2ccccc2N)S(C)(=O)=O)c1
inactive: dose: 50.0 mg/kg/injection, schedule: Q01DX001 (ip), vehicle: saline 95 % of control | [15] 95 % of control | [16] 101 % of control | [17] 90 % of control

Cc1ccc(N=Nc2ccc(C)cc2NC(=O)Nc2ccccc2F)cc1
inactive: [1] 104 % of control | [4] 97 % of control | [7] 88 % of control

CCOC(=O)c1cnc(SC)nc1Nc1ccccc1Br
inactive: [10] 92 % of control | [11] 97 % of control | [12] 98 % of control

COc1ccc(Cl)cc1NC(=O)Oc1ccccn1
inactive: [2] 89 % of control | [18] 92 % of control and 97 % of control | [3] 95 % of control | dose: 200.0 mg/kg/injection, schedule: Q01DX001 (ip), vehicle: saline with Tween-80 89 % of control | [5] 90 % of control and 91 % of control | [19] 93 % of control and 102 % of control | [6] 101 % of control | dose: 400.0 mg/kg/injection, schedule: Q01DX001 (ip), vehicle: saline with Tween-80 92 % of control | [8] 96 % of control | [20] 95 % of control and 91 % of control | [9] 101 % of control

N#C/C(=N\Nc1ccc(S(=O)(=O)O)cc1)C(N)=O
inactive: dose: 100.0 mg/kg/injection, schedule: Q04DX003 (ip), vehicle: saline 104 % of control | dose: 200.0 mg/kg/injection, schedule: Q04DX003 (ip), vehicle: saline 100 % of control | dose: 400.0 mg/kg/injection, schedule: Q04DX003 (ip), vehicle: saline 98 % of control

O=C(NC(Cc1ccccc1)C(=O)N1CCOCC1)c1ccccc1 (stereo unspecified)
inactive: [15] 91 % of control | [16] 98 % of control | [17] 89 % of control

Cc1cc(=O)c2cc(Cc3ccc(N)cc3)ccc2[nH]1
inactive: [15] 101 % of control | [16] 108 % of control

CSc1ncnc2c1ncn2NC(C)=O
inactive: dose: 88.0 mg/kg/injection, schedule: Q01DX009 (ip), vehicle: other 107 % of control | dose: 100.0 mg/kg/injection, schedule: Q01DX001 (ip), vehicle: other 98 % of control | dose: 134.0 mg/kg/injection, schedule: Q01DX009 (ip), vehicle: other 104 % of control | dose: 200.0 mg/kg/injection, schedule: Q01DX001 (ip), vehicle: other 104 % of control | dose: 200.0 mg/kg/injection, schedule: Q01DX009 (ip), vehicle: other 113 % of control | dose: 300.0 mg/kg/injection, schedule: Q01DX009 (ip), vehicle: other 120 % of control | dose: 400.0 mg/kg/injection, schedule: Q01DX001 (ip), vehicle: other 112 % of control

Cc1ccc(S(=O)(=O)NC(=O)NCc2cccc(Cl)c2)cc1
inactive: [1] 101 % of control | [4] 101 % of control | [7] 96 % of control

CCN(CCOC(=O)Nc1ccccc1F)c1ccccc1
inactive: [2] 98 % of control | [5] 115 % of control | [8] 112 % of control

Brc1cccc(CCOCc2ccccc2)c1
inactive: [18] 103 % of control | [19] 100 % of control | [20] 97 % of control

CCCCN=C=NCCCC
inactive: dose: 0.05 mg/kg/injection, schedule: Q01DX Z (ip), vehicle: saline 96 % of control | dose: 0.08 mg/kg/injection, schedule: Q01DX Z (ip), vehicle: saline 90 % of control | dose: 0.12 mg/kg/injection, schedule: Q01DX Z (ip), vehicle: saline 104 % of control | dose: 100.0 mg/kg/injection, schedule: Q01DX001 (ip), vehicle: Klucel (hydroxypropylcellulose) (HPC) 93 % of control | dose: 200.0 mg/kg/injection, schedule: Q01DX001 (ip), vehicle: Klucel (hydroxypropylcellulose) (HPC) 93 % of control

CCOC(=O)c1[nH]c(C)c(C(=O)OCc2ccccc2)c1CCC(=O)O
inactive: dose: 75.0 mg/kg/injection, schedule: Q01DX001 (ip), vehicle: saline with Tween-80 92 % of control | dose: 150.0 mg/kg/injection, schedule: Q01DX001 (ip), vehicle: saline with Tween-80 97 % of control | dose: 300.0 mg/kg/injection, schedule: Q01DX001 (ip), vehicle: saline with Tween-80 100 % of control

CC(=O)Nc1c(Br)cc2c(c1Br)Cc1cc(Br)ccc1-2
inactive: dose: 100.0 mg/kg/injection, schedule: Q01DX001 (ip), vehicle: carboxymethylcellulose (CMC) 111 % of control | dose: 200.0 mg/kg/injection, schedule: Q01DX001 (ip), vehicle: carboxymethylcellulose (CMC) 97 % of control | dose: 400.0 mg/kg/injection, schedule: Q01DX001 (ip), vehicle: carboxymethylcellulose (CMC) 108 % of control

CN(CCN(C)CP(c1ccccc1)c1ccccc1)CP(c1ccccc1)c1ccccc1
inactive: dose: 100.0 mg/kg/injection, schedule: Q04DX002 (sc), vehicle: olive oil, sesame oil, peanut oil 96 % of control | dose: 200.0 mg/kg/injection, schedule: Q04DX002 (sc), vehicle: olive oil, sesame oil, peanut oil 104 % of control | dose: 400.0 mg/kg/injection, schedule: Q04DX002 (sc), vehicle: olive oil, sesame oil, peanut oil 110 % of control
